Assay results as given in the supplement of paper PMC7244745.
± gives the uncertainty stated by the source.

Columns and labels:
[1] = system: Klebsiella pneumoniae ATCC 13882; experiment: rate of pH (A557-A630) increase, Gompertz fit (10^-4 s-1); higher = faster ureolysis; extreme values may be limits of the assay
In short: (§1)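 Klebsiella pneumoniae ATCC 13882 cells from an overnight M9U culture were resuspended and added to sealed 96-well plates with buffered 40 mM urea, phenol red and inhibitor (three stock dilutions, no preincubation; final 200 µl, OD600 0.05), in triplicate. A557 and OD630 were read every 15 min for 24 h. Growth is final OD630; ureolysis is final A557–A630, onset of A557 rise, and rate from a Gompertz-equation fit; values are mean±SD.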

[2] = system: Klebsiella pneumoniae ATCC 13882; experiment: final OD630 (growth) after 24 h; higher = more bacterial growth; extreme values may be limits of the assay
In short: as §1

[3] = system: Klebsiella pneumoniae ATCC 13882; experiment: onset of ureolytic pH increase; higher = more delayed ureolysis (inhibition)
In short: as §1

[4] = system: Klebsiella pneumoniae ATCC 13882; experiment: final pH-related absorbance (A557-A630) after 24 h (absorbance units); higher = more ureolysis; extreme values may be limits of the assay
In short: as §1

Row | SMILES | rate of pH ([1]; 0.007 mM) | rate of pH ([1]; 0.07 mM) | rate of pH ([1]; 0.7 mM) | final OD630 ([2]; 0.007 mM) | final OD630 ([2]; 0.07 mM) | final OD630 ([2]; 0.7 mM) | onset of ureolytic pH increase ([3]; 0.007 mM) [h] | onset of ureolytic pH increase ([3]; 0.07 mM) [h] | onset of ureolytic pH increase ([3]; 0.7 mM) [h] | final pH-related absorbance ([4]; 0.007 mM) | final pH-related absorbance ([4]; 0.07 mM) | final pH-related absorbance ([4]; 0.7 mM) | rate of pH ([1]; 0.1 mM) | rate of pH ([1]; 1 mM) | rate of pH ([1]; 10 mM) | final OD630 ([2]; 0.1 mM) | final OD630 ([2]; 1 mM) | final OD630 ([2]; 10 mM) | onset of ureolytic pH increase ([3]; 0.1 mM) [h] | onset of ureolytic pH increase ([3]; 1 mM) [h] | onset of ureolytic pH increase ([3]; 10 mM) [h] | final pH-related absorbance ([4]; 0.1 mM) | final pH-related absorbance ([4]; 1 mM) | final pH-related absorbance ([4]; 10 mM) | rate of pH ([1]; 0.017 mM) | rate of pH ([1]; 0.167 mM) | final OD630 ([2]; 0.017 mM) | final OD630 ([2]; 0.167 mM) | onset of ureolytic pH increase ([3]; 0.017 mM) [h] | onset of ureolytic pH increase ([3]; 0.167 mM) [h] | final pH-related absorbance ([4]; 0.017 mM) | final pH-related absorbance ([4]; 0.167 mM)
1 | NP(N)(=O)Oc1ccccc1 [Phenyl phosphorodiamidate] | 0 | 0 | 0 | 0.421 ± 0.0059 | 0.4185 ± 0.004 | 0.384 ± 0.01 | > 15 | > 15 | > 15 | 0 | 0 | 0 | – | – | – | – | – | – | – | – | – | – | – | – | – | – | – | – | – | – | – | –
2 | O=S(O)S(=O)(=O)O [Potassium disulfite] | – | – | – | – | – | – | – | – | – | – | – | – | 1.766 ± 0.005 | 0.8111 ± 0.002 | 0 | 0.462 ± 0.012 | 0.531 ± 0.001 | 0.024 ± 0.002 | 7.117 ± 0.025 | 8.65 ± 0.2 | > 15 | 0.358 ± 0.002 | 0.356 ± 0.014 | 0 | – | – | – | – | – | – | – | –
3 | [K+].[O]=[Mn](=[O])(=[O])[O-] [Potassium permanganate] | – | – | – | – | – | – | – | – | – | – | – | – | 1.65 ± 0.032 | 0 | – | 0.444 ± 0.0025 | 0 | – | 11.35 ± 0.107 | > 25 | – | 0.062 ± 0.0044 | 0 | – | – | – | – | – | – | – | – | –
4 | Oc1ccccc1O [Pyrocatechol] | – | – | – | – | – | – | – | – | – | – | – | – | 1.789 ± 0.015 | 1.74 ± 0.016 | – | 0.425 ± 0.0055 | 0.462 ± 0.0061 | 0 | 11.07 ± 0.07 | 14.6 ± 0.35 | – | 0.397 ± 0.0008 | 0.369 ± 0.011 | – | – | – | – | – | – | – | – | –
5 | [F-].[Na+] [Sodium flouride] | – | – | – | – | – | – | – | – | – | – | – | – | 1.35 ± 0.025 | 0 | 0 | 0.408 ± 0.0001 | 0.368 ± 0.0081 | 0.335 ± 0.0025 | 12.22 ± 0.0567 | > 25 | > 25 | 0.178 ± 0.0021 | 0 | 0 | – | – | – | – | – | – | – | –
6 | O=S([O-])[O-].[Na+].[Na+] [Sodium sulfite] | – | – | – | – | – | – | – | – | – | – | – | – | 2.1 ± 0.24 | 1.883 ± 0.013 | 0.984 ± 0.011 | 0.477 ± 0.013 | 0.504 ± 0.027 | 0.416 ± 0.004 | 7 ± 0.217 | 7.4 ± 0.4 | 9.88 ± 0.125 | 0.461 ± 0.054 | 0.373 ± 0.006 | 0.273 ± 0.011 | – | – | – | – | – | – | – | –
7 | O=S(=O)(O)SSS(=O)(=O)O [Sodium tetrathionate dihydrate] | – | – | – | – | – | – | – | – | – | – | – | – | 3.64 ± 1.1 | 3.32 ± 1.5 | 3.97 ± 1.7 | 0.532 ± 0.027 | 0.541 ± 0.021 | 0.554 ± 0.021 | 7.21 ± 0.35 | 7.23 ± 0.367 | 7.17 ± 0.383 | 0.569 ± 0.076 | 0.492 ± 0.1 | 0.5 ± 0.12 | – | – | – | – | – | – | – | –
8 | N#C[S-].[Na+] [Sodium thiocyanate] | – | – | – | – | – | – | – | – | – | – | – | – | 1.61 ± 0.036 | 1.6 ± 0.048 | 0.0522 ± 0.0032 | 0.431 ± 0.003 | 0.445 ± 0.0004 | 0.403 ± 0.003 | 11.25 ± 0.065 | 11.7 ± 0.167 | 12.8 ± 0.317 | 0.152 ± 0.002 | 0.144 ± 0.0019 | 0.123 ± 0.0011 | – | – | – | – | – | – | – | –
9 | O=S(O)(O)=S [Sodium thiosulfate] | – | – | – | – | – | – | – | – | – | – | – | – | 2.09 ± 0.021 | 2.11 ± 0.025 | 2.2095 ± 0.0016 | 0.476 ± 0.0014 | 0.457 ± 0.0043 | 0.454 ± 0.011 | 9.5 ± 0.112 | 9.93 ± 0.0833 | 10.2 ± 0.13 | 0.154 ± 0.0011 | 0.14 ± 0.0017 | 0.142 ± 0.011 | – | – | – | – | – | – | – | –
10 | NS(=O)(=O)O [Sulfamic acid] | – | – | – | – | – | – | – | – | – | – | – | – | 2.17 ± 0.036 | 1.96 ± 0.055 | 0 | 0.506 ± 0.0081 | 0.515 ± 0.014 | 0 | 9.36 ± 0.2 | 8.91 ± 0.118 | > 15 | 0.166 ± 0.019 | 0.182 ± 0.011 | 0 | – | – | – | – | – | – | – | –
11 | O=C(OC[C@H]1O[C@@H](OC(=O)c2cc(O)c(O)c(OC(=O)c3cc(O)c(O)c(O)c3)c2)[C@H](OC(=O)c2cc(O)c(O)c(OC(=O)c3cc(O)c(O)c(O)c3)c2)[C@@H](OC(=O)c2cc(O)c(O)c(OC(=O)c3cc(O)c(O)c(O)c3)c2)[C@@H]1OC(=O)c1cc(O)c(O)c(OC(=O)c2cc(O)c(O)c(O)c2)c1)c1cc(O)c(O)c(OC(=O)c2cc(O)c(O)c(O)c2)c1 [Tannic acid] | – | – | – | – | – | – | – | – | – | – | – | – | 1.47 ± 0.091 | 1.282 ± 0.0068 | 0 | 0.452 ± 0.0032 | 0.433 ± 0.0003 | 0 | 10.1 ± 0.517 | 10.69 ± 0.085 | > 25 | 0.129 ± 0.0091 | 0.125 ± 0.0013 | 0 | – | – | – | – | – | – | – | –
12 | NC(N)=S [Thiourea] | – | – | – | – | – | – | – | – | – | – | – | – | 2.27 ± 0.21 | 2.13 ± 0.083 | 1.94 ± 0.099 | 0.48 ± 0.0071 | 0.492 ± 0.012 | 0.483 ± 0.008 | 6.84 ± 0.3 | 7.06 ± 0.2 | 7.59 ± 0.217 | 0.271 ± 0.024 | 0.25 ± 0.0002 | 0.236 ± 0.014 | – | – | – | – | – | – | – | –
13 | O=C1C=CC(=O)C=C1 [p-benzoquinone] | – | – | – | – | – | – | – | – | – | – | – | – | – | – | – | – | – | – | – | – | – | – | – | – | 1.59 ± 0.027 | 0 | 0.421 ± 0.011 | 0 | 11.35 ± 0.0333 | > 25 | 0.171 ± 0.0039 | 0
14 | Oc1ccc(Cl)cc1 [p-chlorophenol] | – | – | – | – | – | – | – | – | – | – | – | – | 1.5 ± 0.019 | 0.0559 ± 0.0036 | 0 | 0.42 ± 0.0062 | 0.401 ± 0.0036 | 0 | 12.21 ± 0.0417 | 15.6 ± 0.233 | > 15 | 0.162 ± 0.0043 | 0.09 ± 0.0059 | 0 | – | – | – | – | – | – | – | –
